Test results taken from paper PMC11274128, “Modification and Synergistic Studies of a Novel Frog Antimicrobial Peptide against Pseudomonas aeruginosa Biofilms” (Antibiotics, 2024).
≈ marks a conversion by molar mass, not a printed value. Read-outs that look alike come from different tables or passages of the source.

Experiments:
[1] = tested on: K. pneumoniae (ATCC 43816); assay: microbe, parasite or virus in culture; assay type: cell-based, Klebsiella pneumoniae; conditions: Klebsiella pneumoniae, ATCC43816
Excerpt: (§1) The minimum inhibitory concentration (MIC) is the minimum concentration of an antimicrobial agent that prevents the visible growth of a bacterium or bacteria. The MIC is an important piece of data for research on new antimicrobial agents and helps in the effective selection of antibiotics to improve the success of treatment. The minimum bactericidal concentration (MBC) is defined as the lowest antibiotic concentration that kills 99.9% of the inoculum. This study mainly contained eight different microorganisms, which were Staphylococcus aureus (ATCC 6538), methicillin-resistant Staphylococcus aureus (NCTC 12493), Enterococcus faecalis (NCTC 12697), Escherichia coli (ATCC 8739), Klebsiella pneumoniae (ATCC 43816), Pseudomonas aeruginosa (ATCC CRM 9027), Acinetobacter baumannii (BAA 747), and Candida albicans (ATCC 10231). The bacteria were incubated in the compatible medium at 37 °C overnight.

[2] = tested on: E. faecalis (NCTC 12697); assay: microbe, parasite or virus in culture; assay type: cell-based, Enterococcus faecalis; conditions: Enterococcus faecalis, NCTC12697
Excerpt: as §1

[3] = tested on: E. coli (ATCC 8739); assay: microbe, parasite or virus in culture; assay type: cell-based, Escherichia coli; conditions: Escherichia coli, ATCC8739
Excerpt: as §1

[4] = tested on: MRSA (NCTC 12493); assay: microbe, parasite or virus in culture; assay type: cell-based, methicillin-resistant Staphylococcus aureus; conditions: Staphylococcus aureus
Excerpt: as §1

[5] = tested on: P. aeruginosa (ATCC CRM 9027); assay: microbe, parasite or virus in culture; assay type: cell-based, Pseudomonas aeruginosa; conditions: Pseudomonas aeruginosa
Excerpt: as §1

[6] = tested on: A. baumannii (BAA 747); assay: microbe, parasite or virus in culture; assay type: cell-based, Acinetobacter baumannii; conditions: Acinetobacter baumannii, BAA747
Excerpt: as §1

[7] = tested on: S. aureus (ATCC 6538); assay: microbe, parasite or virus in culture; assay type: cell-based, Staphylococcus aureus; conditions: Staphylococcus aureus, ATCC6538
Excerpt: as §1

[8] = tested on: K. pneumoniae ATCC 43816 biofilm; assay type: cell-based, Klebsiella pneumoniae; conditions: for MBIC: lowest concentration inhibiting at least 90% of biofilm formation; for MBEC: minimum concentration eradicating at least 99% of the biofilm
Excerpt: (§2) The minimum bactericidal concentration (MBC) is defined as the lowest antibiotic concentration that kills 99.9% of the inoculum. The minimum biofilm inhibitory concentration (MBIC) is the lowest concentration that inhibits at least 90% of the formation of biofilm. The minimum biofilm eradication concentration (MBEC) is the minimum concentration that can eradicate at least 99% of the biofilm. In addition to the eight microorganisms described previously, this experiment was also applied to P. aeruginosa (ATCC 27853, ATCC BAA-2108, P. aeruginosa 01, P. aeruginosa 14).

[9] = tested on: E. faecalis NCTC 12697 biofilm; assay type: cell-based, Enterococcus faecalis; conditions: for MBIC: lowest concentration inhibiting at least 90% of biofilm formation; for MBEC: minimum concentration eradicating at least 99% of the biofilm
Excerpt: as §2

[10] = tested on: P. aeruginosa ATCC 27853 biofilm; assay type: cell-based, Pseudomonas aeruginosa; conditions: for MBIC: lowest concentration inhibiting at least 90% of biofilm formation; for MBEC: minimum concentration eradicating at least 99% of the biofilm
Excerpt: as §2

[11] = tested on: P. aeruginosa ATCC CRM 9027 biofilm; assay type: cell-based, Pseudomonas aeruginosa; conditions: for MBIC: lowest concentration inhibiting at least 90% of biofilm formation; for MBEC: minimum concentration eradicating at least 99% of the biofilm
Excerpt: as §2

[12] = tested on: P. aeruginosa 14 biofilm; assay type: cell-based, Pseudomonas aeruginosa; conditions: for MBIC: lowest concentration inhibiting at least 90% of biofilm formation; for MBEC: minimum concentration eradicating at least 99% of the biofilm
Excerpt: as §2

[13] = tested on: P. aeruginosa ATCC BAA-2108 biofilm; assay type: cell-based, Pseudomonas aeruginosa; conditions: for MBIC: lowest concentration inhibiting at least 90% of biofilm formation; for MBEC: minimum concentration eradicating at least 99% of the biofilm
Excerpt: as §2

[14] = tested on: P. aeruginosa 01 biofilm; assay type: cell-based, Pseudomonas aeruginosa; conditions: for MBIC: lowest concentration inhibiting at least 90% of biofilm formation; for MBEC: minimum concentration eradicating at least 99% of the biofilm
Excerpt: as §2

[15] = tested on: A. baumannii BAA 747 biofilm; assay type: cell-based, Acinetobacter baumannii; conditions: for MBIC: lowest concentration inhibiting at least 90% of biofilm formation; for MBEC: minimum concentration eradicating at least 99% of the biofilm
Excerpt: as §2

[16] = tested on: MRSA NCTC 12493 biofilm; assay type: cell-based, methicillin-resistant Staphylococcus aureus; conditions: for MBIC: lowest concentration inhibiting at least 90% of biofilm formation; for MBEC: minimum concentration eradicating at least 99% of the biofilm
Excerpt: as §2

[17] = tested on: S. aureus ATCC 6538 biofilm; assay type: cell-based, Staphylococcus aureus; conditions: for MBIC: lowest concentration inhibiting at least 90% of biofilm formation; for MBEC: minimum concentration eradicating at least 99% of the biofilm
Excerpt: as §2

[18] = planktonic K. pneumoniae ATCC 43816, 37 °C, nine repeats of three independent experiments, read-out: MIC
[19] = planktonic K. pneumoniae ATCC 43816, lowest concentration killing 99.9% of inoculum, read-out: MBC
[20] = planktonic E. faecalis NCTC 12697, 37 °C, nine repeats of three independent experiments, read-out: MIC
[21] = planktonic E. faecalis NCTC 12697, lowest concentration killing 99.9% of inoculum, read-out: MBC
[22] = planktonic E. coli ATCC 8739, 37 °C, nine repeats of three independent experiments, read-out: MIC
[23] = planktonic E. coli ATCC 8739, lowest concentration killing 99.9% of inoculum, read-out: MBC
[24] = planktonic MRSA NCTC 12493, 37 °C, nine repeats of three independent experiments, read-out: MIC
[25] = planktonic MRSA NCTC 12493, lowest concentration killing 99.9% of inoculum, read-out: MBC
[26] = planktonic P. aeruginosa ATCC CRM 9027, 37 °C, nine repeats of three independent experiments, read-out: MIC
[27] = planktonic P. aeruginosa ATCC CRM 9027, lowest concentration killing 99.9% of inoculum, read-out: MBC
[28] = planktonic A. baumannii BAA 747, 37 °C, nine repeats of three independent experiments, read-out: MIC
[29] = planktonic A. baumannii BAA 747, lowest concentration killing 99.9% of inoculum, read-out: MBC
[30] = planktonic S. aureus ATCC 6538, 37 °C, nine repeats of three independent experiments, read-out: MIC
[31] = planktonic S. aureus ATCC 6538, lowest concentration killing 99.9% of inoculum, read-out: MBC

Structure (SMILES)	MIC [1, 18] [µM]	MBC [1, 19] [µM]	MIC [2, 20] [µM]	MBC [2, 21] [µM]	MIC [3, 22] [µM]	MBC [3, 23] [µM]	MIC [4, 24] [µM]	MBC [4, 25] [µM]	MIC [5, 26] [µM]	MBC [5, 27] [µM]	MIC [6, 28] [µM]	MBC [6, 29] [µM]	MIC [7, 30] [µM]	MBC [7, 31] [µM]	MBIC [8]	MBEC [8]	MBIC [9]	MBEC [9]	MBIC [10] [µM]	MBEC [10] [µM]	other results
C[C@H]1COc2c(N3CCN(C)CC3)c(F)cc3c(=O)c(C(=O)O)cn1c23 [Levofloxacin, reference compound]	> 128	> 128	2 (≈ 0.723 µg/mL)	8 (≈ 2.89 µg/mL)	0.25 (≈ 0.0903 µg/mL)	0.5 (≈ 0.181 µg/mL)	0.25 (≈ 0.0903 µg/mL)	0.5 (≈ 0.181 µg/mL)	2 (≈ 0.723 µg/mL)	2 (≈ 0.723 µg/mL)	1 (≈ 0.361 µg/mL)	1 (≈ 0.361 µg/mL)	0.5 (≈ 0.181 µg/mL)	0.5 (≈ 0.181 µg/mL)							
CN[C@H](CC(C)C)C(=O)N[C@H]1C(=O)N[C@@H](CC(N)=O)C(=O)N[C@H]2C(=O)N[C@H]3C(=O)N[C@H](C(=O)N[C@H](C(=O)O)c4cc(O)cc(O)c4-c4cc3ccc4O)[C@H](O)c3ccc(c(Cl)c3)Oc3cc2cc(c3O[C@@H]2O[C@H](CO)[C@@H](O)[C@H](O)[C@H]2O[C@H]2C[C@](C)(N)[C@H](O)[C@H](C)O2)Oc2ccc(cc2Cl)[C@H]1O [Vancomycin, reference compound]																					MBC [1]: > 128 µM; MIC [1]: > 128 µM; MBC [2]: > 128 µM; MIC [2]: 32 µM (≈ 46.4 µg/mL); MBC [3]: > 128 µM; MIC [3]: 32 µM (≈ 46.4 µg/mL); MBC [4]: 8 µM (≈ 11.6 µg/mL); MIC [4]: 4 µM (≈ 5.8 µg/mL); MBC [5]: > 128 µM; MIC [5]: > 128 µM; MBC [6]: > 128 µM; MIC [6]: > 128 µM; MBC [7]: 64 µM (≈ 92.8 µg/mL); MIC [7]: 8 µM (≈ 11.6 µg/mL)
CO/N=C(\C(=O)N[C@@H]1C(=O)N2C(C(=O)[O-])=C(C[N+]3(C)CCCC3)CS[C@H]12)c1csc(N)n1 [Cefepime, reference compound]	128 (≈ 61.5 µg/mL)	> 128	128 (≈ 61.5 µg/mL)	> 128	8 (≈ 3.84 µg/mL)	16 (≈ 7.69 µg/mL)	16 (≈ 7.69 µg/mL)	32 (≈ 15.4 µg/mL)	2 (≈ 0.961 µg/mL)	2 (≈ 0.961 µg/mL)	1 (≈ 0.481 µg/mL)	2 (≈ 0.961 µg/mL)	32 (≈ 15.4 µg/mL)	64 (≈ 30.8 µg/mL)	>128/>128 µM	>128/>128 µM	>128/>128 µM	>128/>128 µM	2	4	MBIC [11]: >128/>128 µM; MBEC [11]: >128/>128 µM; MBIC [12]: 8 µM; MBEC [12]: > 128 µM; MBIC [13]: 64 µM; MBEC [13]: > 128 µM; MBIC [14]: 4 µM; MBEC [14]: > 128 µM; MBIC [15]: 128/>128 µM; MBEC [15]: 128/>128 µM; MBIC [16]: >128/>128 µM; MBEC [16]: >128/>128 µM; MBIC [17]: 4 µM; MBEC [17]: 8 µM
CNC(C)C1CCC(N)C(OC2C(N)CC(N)C(OC3OCC(C)(O)C(NC)C3O)C2O)O1 (stereo not drawn) [Gentamicin, reference compound]	1 (≈ 0.478 µg/mL)	1 (≈ 0.478 µg/mL)	16 (≈ 7.64 µg/mL)	32 (≈ 15.3 µg/mL)	2 (≈ 0.955 µg/mL)	4 (≈ 1.91 µg/mL)	1 (≈ 0.478 µg/mL)	2 (≈ 0.955 µg/mL)	0.25 (≈ 0.119 µg/mL)	0.5 (≈ 0.239 µg/mL)	> 128	> 128	2 (≈ 0.955 µg/mL)	2 (≈ 0.955 µg/mL)	32/32 µM	32/32 µM	>128/>128 µM	>128/>128 µM	4	> 128	MBIC [11]: 2 µM; MBEC [11]: 4 µM; MBIC [12]: 2 µM; MBEC [12]: 4 µM; MBIC [13]: 16 µM; MBEC [13]: 128 µM; MBIC [14]: 4 µM; MBEC [14]: 8 µM; MBIC [15]: 8 µM; MBEC [15]: 16 µM; MBIC [16]: 2 µM; MBEC [16]: > 128 µM; MBIC [17]: 8 µM; MBEC [17]: 16 µM
